These results are taken from US20140249076A1, “AMYLIN-CALCITONIN CHIMERIC PEPTIDES CONJUGATED TO DURATION ENHANCING MOIETIES” (AMYLIN PHARMACEUTICALS, LLC, priority 2011, published 2014).

Experiment [1] deals with male Harlan Sprague-Dawley rats. Kind of experiment: Stress-induced hyperthermia (SIH) assay. Particulars: 0.1 mg/kg IP, 18 hr pretreatment. In kind it is in vivo, rat. The source says:
Stress-induced hyperthermia (SIH). Body temperature and emotional state are closely related in humans. Without wishing to be bound by any theory, it is believed that stress-induced hyperthermia (SIH) in rodents has predictive validity for certain human anxiety/stress disorders. The SIH assay assesses the effect of test agents (e.g, anxiolytics) on core body temperature following restraint stress. See, for example, Zethof et al., 1994, Physiol. Behay. 55:109-115. Anxiolytics typically blunt the increase in body temperature, or hyperthermic response, following stress exposure. […] Test animals can then be patiented to two sequential rectal temperature measurements at a measured time interval (e.g, 30 min). The difference between the second temperature reading and the first temperature reading (ΔT) is the stress-induced hyperthermic response.
As described above, it is believed that stress-induced hyperthermia (SIH) in rodents (e.g., rats) has predictive validity for certain human anxiety/stress disorders. […] Temperature readings were obtained remotely at the time of injection and at t=0 and t=30 minutes. The SIH response was defined as the change from t=30 back to t=0 minutes, while effects on basal temperature were calculated as the change from t=0 back to the time of injection.

Experiment [2] has as its system mice. Kind of experiment: Forced swim test (FST). To be noted: qualitative result; 0.03 mg/kg dosing, as in Example 8. The experiment is classed as in vivo, mouse. The source says:
The forced swim test (FST) is a commonly used paradigm to evaluate antidepressant activity of drugs. The FST is based on measurement of the animal's floating time in a tank filled with water. When rats or mice are forced to swim in a deep cylinder with tepid water they become nearly immobile and cease trying to escape. Without wishing to be bound by any theory, it is believe that this characteristic immobile posture reflects a depressive-like state which is readily influenced by a wide variety of antidepressants. See, e.g., Hedou et al., 2001, Pharmacol, Biochem. Behay. 70:65-76; Chaki et al., 2003, J. Pharmacol. Exp. Ther. 304:818-826; Porsolt et al., 1977, Nature 266:730-732. Antidepressants decrease the immobility time in the FST. Vehicle or test compound can be delivered continuously for two weeks to mice by subcutaneously implanted osmotic pumps prior to the FST. Indeed, any route of administration (e.g., intraperitoneal, subcutaneous, oral and the like) is available. Mice can be placed in the water tank for assessment of climbing, swimming, and immobility over a defined trial session, typically 6 minutes. Test session parameters for mice and rats are typically different, as known in the art.
The forced swim test (FST) is a commonly used paradigm to evaluate antidepressant activity of drugs. […] Specifically, vehicle or test compound was delivered continuously for two weeks to mice by subcutaneously implanted osmotic pumps prior to the FST assay, by methods well known in the art. On day one, the patients were introduced into the tank for a 15 minute pre-swim session. On day two, the patients were placed back into the water tank for assessment of climbing, swimming, and immobility over a 6 minute trial session. The rate of compound infusion was 0.03 mg/kg/day.

Molecules are shown by their SMILES. Numbered stars: 1 amine (or outer) side, 2 acyl side, 3 side chain; on linkers, the order of the positions; unused ones are H or OH. Bridge positions count the residues as written; N and C are the ends. Side chains are listed from the residue outwards. Peptide text beside a SMILES is read from it. * marks the point of attachment. γGlu = O=C(O)[C@H](CCC(=O)[*:2])N[*:1]; Palmitoyl = CCCCCCCCCCCCCCCC(=O)*

In the case of `CCCCCCCCCCCCCCCC(=O)N[C@@H](CCC(=O)NCCCC[C@H](NC(=O)[C@@H](NC(=O)[C@H](CCCNC(=N)N)NC(=O)[C@@H]1CCCN1C(=O)[C@H](Cc1ccc(O)cc1)NC(=O)[C@@H](NC(=O)[C@H](CCC(N)=O)NC(=O)[C@H](CC(C)C)NC(=O)[C@H](CCCNC(=N)N)NC(=O)[C@H](Cc1c[nH]cn1)NC(=O)[C@H](CC(C)C)NC(=O)[C@H](CCC(=O)O)NC(=O)[C@H](CCC(N)=O)NC(=O)[C@H](C)NC(=O)[C@H](CC(C)C)NC(=O)[C@H](CCCNC(=N)N)NC(=O)[C@H](CCC(N)=O)NC(=O)[C@H](CC(C)C)NC(=O)[C@H](C)NC(=O)[C@@H]1CSSC[C@H](NC(=O)[C@@H](N)CCCCN)C(=O)N[C@@H](CC(N)=O)C(=O)N[C@@H]([C@@H](C)O)C(=O)N[C@@H](C)C(=O)N[C@@H]([C@@H](C)O)C(=O)N1)[C@@H](C)O)[C@@H](C)O)C(=O)N[C@H](C(=O)NCC(=O)N[C@@H](CO)C(=O)N[C@@H](CC(N)=O)C(=O)N[C@H](C(=O)N[C@@H](Cc1ccc(O)cc1)C(N)=O)[C@@H](C)O)C(C)C)C(=O)O` [Cmpd 189, [K^26ε-(γ-Glu(Nα-C16-Chain))]-Cmpd 17] (H-KCNTATCALQRLAQELHRLQTYPRTK([γGlu-Palmitoyl])VGSNTY-NH2; disulfide 2-7 (inferred); N-terminus assumed), the SIH response entry in experiment [1] is listed as “statistically insignificant reduction in SIH”. The “FST Assay, 0.03 mg/kg” value in experiment [2] is on record as “Active”.
